# Measurements taken from patent US12344610B2, “APOL1 inhibitors and methods of use” (Maze Therapeutics, Inc., priority 2022, dated 2025).
# Experiments:
# Assay type in all cases: cell-based
# [1] = system: Trypanosoma brucei Lister 427 VSG221 with APOL1 G1 recombinant protein; test: APOL1 G1 trypanosome cell rescue assay (Example B5); details: Trypanosoma brucei, 20 h, read-out: APOL1 G1 Trypanosome Rescue EC50, Trypanosoma brucei Lister 427 VSG221 with APOL1 G1 recombinant protein, 20 hours, CellTiter-Glo; geometric mean of at least 2 assay runs; † = single assay run
# Procedure, shortened: (§1)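 Compounds in duplicate 2-fold, 11-point series with 0.4% DMSO final. Next, tag-free mature APOL1 variant protein went in from a 2 μg/mL solution, then trypanosomes to 250 per well. Plates incubated 20 h humidified at 37° C, equilibrated to room temperature, and CellTiter-Glo added for luminescence.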
# [2] = system: Trypanosoma brucei Lister 427 VSG221 with APOL1 G0 recombinant protein; test: APOL1 G0 trypanosome cell rescue assay (Example B5); details: Trypanosoma brucei, 20 h, read-out: APOL1 G0 Trypanosome Rescue EC50, Trypanosoma brucei Lister 427 VSG221 with APOL1 G0 recombinant protein, 20 hours, CellTiter-Glo; geometric mean of at least 2 assay runs; † = single assay run
# Procedure, shortened: as §1
# [3] = system: Trypanosoma brucei Lister 427 VSG221 with APOL1 G2 recombinant protein; test: APOL1 G2 trypanosome cell rescue assay (Example B5); details: Trypanosoma brucei, 20 h, read-out: APOL1 G2 Trypanosome Rescue EC50, Trypanosoma brucei Lister 427 VSG221 with APOL1 G2 recombinant protein, 20 hours, CellTiter-Glo; geometric mean of at least 2 assay runs; † = single assay run
# Procedure, shortened: as §1
# [4] = system: HEK293 cells overexpressing APOL1 G2; test: APOL1 G2 HEK293 cell rescue assay (reversal of cell death caused by overexpression of APOL1); details: Homo sapiens, HEK293, HEK293 overexpressing APOL1 G2; geometric mean of at least 2 assay runs; † = single assay run
# Procedure, shortened: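 EC50 is the half-maximal effective concentration for reversing cell death driven by APOL1 G2 overexpression in HEK293 cells. Reported as geometric mean of at least 2 runs on separate days, each run averaging duplicate wells per plate; some values from a single run.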
Compound,EC50 [1] [µM],EC50 [2] [µM],EC50 [3] [µM],EC50 [4] [µM]
"Cn1ncc2cc(OCCN3CCC4(CC3)C(=O)Nc3ccc(Cl)cc34)ccc21 [Compound 68, 5-chloro-1′-{2-[(1-methyl-1H-indazol-5-yl)oxy]ethyl}-1,2-dihydrospiro[indole-3,4′-piperidin]-2-one]",0.441,0.358,0.115,0.148
"CS(=O)(=O)c1ccc(OCCN2CCC3(CC2)C(=O)Nc2ccc(Cl)cc23)cc1 [Compound 69, 5-chloro-1′-[2-(4-methanesulfonylphenoxy)ethyl]-1,2-dihydrospiro[indole-3,4′-piperidin]-2-one]",0.184,0.153,0.0465,0.0826
"C[C@]1(O)C[C@@H](n2cnc3cc(OCCN4CCC5(CC4)C(=O)Nc4ccc(Cl)cc45)cc(C#N)c32)C1 [Compound 439, 5-(2-{5-chloro-2-oxo-1,2-dihydrospiro[indole-3,4′-piperidin]-1′-yl}ethoxy)-1-[(cis)-3-hydroxy-3-methylcyclobutyl]-1H-1,3-benzodiazole-7-carbonitrile]",0.051,0.0505,0.0202,0.0149
